Laboratory results reported in ChEMBL document CHEMBL1158699, “Bioactive benzophenones from Garcinia xanthochymus fruits” (J Nat Prod, 2005).
Activity calls are given as the source filed them. No cut-off for these calls is given here.

Columns and labels:
[1] = test system: SW480; experiment: Cytotoxicity against human SW480 cells after 72 hrs by MTT assay; format: functional, cell-based; settings: SW480, 72 h
[2] = test system: Radical scavenging activity; experiment: Antioxidant activity assessed as DPPH radical scavenging activity; format: functional

Row | IC50 [2] | SMILES | IC50 [1] | Activity [2]
1 | – | COc1cc2c(=O)c3c(O)cc(O)cc3oc2cc1O [ALLOATHYRIOL] | 117 µM | inactive
2 | > 400 µM | O=c1c(-c2c(O)cc(O)c3c(=O)cc(-c4ccc(O)cc4)oc23)c(-c2ccc(O)cc2)oc2cc(O)cc(O)c12 | 185 µM | –
3 | 184 µM | O=c1cc(-c2ccc(O)c(-c3c(O)cc(O)c4c(=O)cc(-c5ccc(O)cc5)oc34)c2)oc2cc(O)cc(O)c12 [AMENTOFLAVONE] | 111 µM | –
4 | 116 µM | O=C1c2c(O)cc(O)cc2OC(c2ccc(O)cc2)C1c1c(O[C@@H]2O[C@H](CO)[C@@H](O)[C@H](O)[C@H]2O)cc(O)c2c(=O)cc(-c3ccc(O)c(O)c3)oc12 (mixture of isomers) | > 200 µM | –
5 | 62 µM | O=C1c2c(O)cc(O)cc2OC(c2ccc(O)cc2)C1c1c(O)cc(O)c2c(=O)cc(-c3ccc(O)c(O)c3)oc12 (racemic) | 89 µM | –
